Earlier results in patent publication US20110294815A1, “PROSTACYCLIN ANALOGS” (priority 2008, published 2011).

Details: patients with hepatic insufficiency vs healthy adults

Q: With `CCCCC[C@H](O)CC[C@@H]1[C@H]2Cc3cccc(OCC(=O)[O-])c3C[C@H]2C[C@H]1O.[Na+]` [treprostinil, (1R,2R,3aS,9aS)-[[2,3,3a,4,9,9a-Hexahydro-2-hydroxy-1-[(3S)-3-hydroxyoctyl]-1H-benz[f]inden-5-yl]oxy]acetic acid monosodium salt] as the molecule, how does the “reduction of clearance compared to healthy adults” value read?
A: up to 80%
